Source: US7015215B2, “Pyrrolo[2,1-c][1,4] benzodiazepines compounds and process thereof” (Council of Scientific and Industrial Research, priority 2003, dated 2006)

Assays:
Assay type in all cases: cell-based, human
MOLT-4 = assay: NCI SRB cytotoxicity, Leukemia MOLT-4; conditions: MOLT-4, Leukemia, 48 h
Method: (§1) Biological Activity: In vitro biological activity studies were carried out at National Cancer Institute (U.S.A.).
(§2) For each compound, dose response curves for each cell line were measured at a minimum of five concentrations at 10 fold dilutions. A protocol of 48 h continuous drug exposure was used, and a sulforhodamine B (SRB) protein assay was used to estimate cell viability or growth. The concentration causing 50% cell growth inhibition (GI50), total cell growth inhibition (TGI, 0% growth) and 50% cell death (LC50, −50% growth) compared with the control was calculated.

SR = assay: NCI SRB cytotoxicity, Leukemia SR; conditions: 48 h
Method: as §1, §2

A549/ATCC = assay: NCI SRB cytotoxicity, Non-small-cell lung A549/ATCC; conditions: 48 h
Method: as §1, §2

EKVX = assay: NCI SRB cytotoxicity, Non-small-cell lung EKVX; conditions: 48 h
Method: as §1, §2

HOP-62 = assay: NCI SRB cytotoxicity, Non-small-cell lung HOP-62; conditions: HOP-62, Non-small-cell lung, 48 h
Method: as §1, §2

NCI-H226 = assay: NCI SRB cytotoxicity, Non-small-cell lung NCI-H226; conditions: 48 h
Method: as §1, §2

NCI-H23 = assay: NCI SRB cytotoxicity, Non-small-cell lung NCI-H23; conditions: 48 h
Method: as §1, §2

NCI-H322 = assay: NCI SRB cytotoxicity, Non-small-cell lung NCI-H322; conditions: 48 h
Method: as §1, §2

NCI-H460 = assay: NCI SRB cytotoxicity, Non-small-cell lung NCI-H460; conditions: 48 h
Method: as §1, §2

NCI-H522 = assay: NCI SRB cytotoxicity, Non-small-cell lung NCI-H522; conditions: 48 h
Method: as §1, §2

COLO 205 = assay: NCI SRB cytotoxicity, Colon COLO 205; conditions: COLO 205, Colon, 48 h
HCC-2998 = assay: NCI SRB cytotoxicity, Colon HCC-2998; conditions: HCC-2998, Colon, 48 h
Method: as §1, §2

HCT-15 = assay: NCI SRB cytotoxicity, Colon HCT-15; conditions: HCT-15, Colon, 48 h
HT-29 = assay: NCI SRB cytotoxicity, Colon HT-29; conditions: HT-29, Colon, 48 h
Method: as §1, §2

KM-12 = assay: NCI SRB cytotoxicity, Colon KM-12; conditions: KM-12, Colon, 48 h
Method: as §1, §2

SF-268 = assay: NCI SRB cytotoxicity, CNS SF-268; conditions: SF-268, CNS, 48 h
Method: as §1, §2

SNB-75 = assay: NCI SRB cytotoxicity, CNS SNB-75; conditions: SNB-75, CNS, 48 h
Method: as §1, §2

U251 = assay: NCI SRB cytotoxicity, CNS U251; conditions: 48 h
M14 = assay: NCI SRB cytotoxicity, Melanoma M14; conditions: 48 h
Method: as §1, §2

SK-MEL-28 = assay: NCI SRB cytotoxicity, Melanoma SK-MEL-28; conditions: SK-MEL-28, Melanoma, 48 h
Method: as §1, §2

SK-MEL-5 = assay: NCI SRB cytotoxicity, Melanoma SK-MEL-5; conditions: SK-MEL-5, Melanoma, 48 h
Method: as §1, §2

UACC-257 = assay: NCI SRB cytotoxicity, Melanoma UACC-257; conditions: UACC-257, Melanoma, 48 h
Method: as §1, §2

IGROVI = assay: NCI SRB cytotoxicity, Ovarian IGROVI; conditions: 48 h
OVCAR-4 = assay: NCI SRB cytotoxicity, Ovarian OVCAR-4; conditions: OVCAR-4, Ovarian, 48 h
Method: as §1, §2

OVCAR-5 = assay: NCI SRB cytotoxicity, Ovarian OVCAR-5; conditions: OVCAR-5, Ovarian, 48 h
Method: as §1, §2

OVCAR-8 = assay: NCI SRB cytotoxicity, Ovarian OVCAR-8; conditions: OVCAR-8, Ovarian, 48 h
Method: as §1, §2

A498 = assay: NCI SRB cytotoxicity, Renal A498; conditions: 48 h
Method: as §1, §2

ACHN = assay: NCI SRB cytotoxicity, Renal ACHN; conditions: 48 h
Method: as §1, §2

RXF 393 = assay: NCI SRB cytotoxicity, Renal RXF 393; conditions: RXF 393, Renal, 48 h
Method: as §2

TK-10 = assay: NCI SRB cytotoxicity, Renal TK-10; conditions: TK-10, Renal, 48 h
Method: as §1, §2

PC-3 = assay: NCI SRB cytotoxicity, Prostate PC-3; conditions: PC-3, Prostate, 48 h
DU-145 = assay: NCI SRB cytotoxicity, Prostate DU-145; conditions: DU-145, Prostate, 48 h
Method: as §2

NCI/ADR-RES = assay: NCI SRB cytotoxicity, Breast NCI/ADR-RES; conditions: 48 h
MDA-MB-231/ATCC = assay: NCI SRB cytotoxicity, Breast MDA-MB-231/ATCC; conditions: 48 h
Method: as §1, §2

HS578T = assay: NCI SRB cytotoxicity, Breast HS578T; conditions: 48 h
Method: as §1, §2

MDA-MB-435 = assay: NCI SRB cytotoxicity, Breast MDA-MB-435; conditions: MDA-MB-435, Breast, 48 h
BT-549 = assay: NCI SRB cytotoxicity, Breast BT-549; conditions: BT-549, Breast, 48 h
Method: as §1, §2

T-47D = assay: NCI SRB cytotoxicity, Breast T-47D; conditions: 48 h
Method: as §1, §2

COc1cc2c(cc1OCCCCCN1CCN(CCCCCOc3cc4c(cc3OC)C(=O)N3CCC[C@H]3C=N4)CC1)N=C[C@@H]1CCCN1C2=O [Compound VId]
Log GI 50 (MOLT-4): −4.79 mol/L
Log LC 50 (MOLT-4): −4.00 mol/L
Log GI 50 (SR): −5.37 mol/L
Log LC 50 (SR): −4.00 mol/L
Log GI 50 (A549/ATCC): −4.66 mol/L
Log LC 50 (A549/ATCC): −4.00 mol/L
Log GI 50 (EKVX): −4.33 mol/L
Log LC 50 (EKVX): −4.00 mol/L
Log GI 50 (HOP-62): −4.00 mol/L
Log LC 50 (HOP-62): −4.00 mol/L
Log GI 50 (NCI-H226): −5.30 mol/L
Log LC 50 (NCI-H226): −4.00 mol/L
Log GI 50 (NCI-H23): −5.18 mol/L
Log LC 50 (NCI-H23): −4.00 mol/L
Log GI 50 (NCI-H322): −4.65 mol/L
Log LC 50 (NCI-H322): −4.00 mol/L
Log GI 50 (NCI-H460): −5.49 mol/L
Log LC 50 (NCI-H460): −4.00 mol/L
Log GI 50 (NCI-H522): −5.47 mol/L
Log LC 50 (NCI-H522): −4.00 mol/L
Log GI 50 (COLO 205): −5.49 mol/L
Log LC 50 (COLO 205): −4.00 mol/L
Log GI 50 (HCC-2998): −5.69 mol/L
Log LC 50 (HCC-2998): −4.29 mol/L
Log GI 50 (HCT-15): −4.25 mol/L
Log LC 50 (HCT-15): −4.00 mol/L
Log GI 50 (HT-29): −5.02 mol/L
Log LC 50 (HT-29): −4.00 mol/L
Log GI 50 (KM-12): −5.25 mol/L
Log LC 50 (KM-12): −4.00 mol/L
Log GI 50 (SF-268): −5.44 mol/L
Log GI 50 (SNB-75): −4.51 mol/L
Log LC 50 (SNB-75): −4.00 mol/L
Log GI 50 (U251): −5.47 mol/L
Log LC 50 (U251): −4.00 mol/L
Log GI 50 (M14): −4.76 mol/L
Log GI 50 (SK-MEL-28): −4.71 mol/L
Log LC 50 (SK-MEL-28): −4.00 mol/L
Log GI 50 (SK-MEL-5): −5.48 mol/L
Log LC 50 (SK-MEL-5): −4.00 mol/L
Log GI 50 (UACC-257): −4.75 mol/L
Log LC 50 (UACC-257): −4.00 mol/L
Log GI 50 (IGROVI): −5.13 mol/L
Log LC 50 (IGROVI): −4.00 mol/L
Log GI 50 (OVCAR-4): −5.38 mol/L
Log LC 50 (OVCAR-4): −4.00 mol/L
Log GI 50 (OVCAR-5): −5.33 mol/L
Log LC 50 (OVCAR-5): −4.00 mol/L
Log GI 50 (OVCAR-8): −4.67 mol/L
Log LC 50 (OVCAR-8): −4.00 mol/L
Log GI 50 (A498): −5.00 mol/L
Log LC 50 (A498): −4.00 mol/L
Log GI 50 (ACHN): −4.63 mol/L
Log LC 50 (ACHN): −4.00 mol/L
Log GI 50 (RXF 393): −8.00 mol/L
Log LC 50 (RXF 393): −5.09 mol/L
Log LC 50 (TK-10): −4.00 mol/L
Log GI 50 (PC-3): −5.41 mol/L
Log LC 50 (PC-3): −4.00 mol/L
Log GI 50 (DU-145): −5.37 mol/L
Log LC 50 (DU-145): −4.00 mol/L
Log GI 50 (NCI/ADR-RES): −4.00 mol/L
Log LC 50 (NCI/ADR-RES): −4.00 mol/L
Log GI 50 (MDA-MB-231/ATCC): −5.42 mol/L
Log LC 50 (MDA-MB-231/ATCC): −4.00 mol/L
Log GI 50 (HS578T): −5.12 mol/L
Log LC 50 (HS578T): −4.00 mol/L
Log GI 50 (MDA-MB-435): −5.37 mol/L
Log LC 50 (MDA-MB-435): −4.00 mol/L
Log GI 50 (BT-549): −5.31 mol/L
Log LC 50 (BT-549): −4.00 mol/L
Log GI 50 (T-47D): −5.00 mol/L
Log LC 50 (T-47D): −4.00 mol/L
